{
  "source": "paper PMC12029898",
  "about": "“Cellular Metabolomics Reveals Differences in the Scope of Liver Protection Between Ammonium-Based Glycyrrhizinate and Magnesium Isoglycyrrhizinate” (Metabolites, 2025)",
  "experiment": "Pharmacokinetics after oral gavage in rats (plasma, HPLC)",
  "type": "in vivo, Sprague Dawley rats",
  "conditions": "rat",
  "from_the_text": "Nine male Sprague Dawley rats, each weighing approximately 250 g ± 25 g, were meticulously selected as the experimental subjects (sourced from Beijing SPF Biotechnology Co., Ltd., (Beijing, China) SPF grade, licensed under SCXK (Jing) 2019-0010). The experimental protocol was approved by the Institutional Animal Care and Use Committee of Hebei Medical University and conformed to the Guide for Care and Use of Laboratory Animals (approval NO. 2023040). Prior to and throughout the experimental period, the rats were provided with unrestricted access to standard rodent chow and water. The housing facilities for these animals adhered strictly to the standards outlined by the International Association for the Evaluation and Certification of Laboratory Animal Care, ensuring optimal conditions for the animals’ wellbeing. The experimental feeding environment was maintained at a temperature of 22–24 °C, with a relative humidity of 50 ± 5%, and a 12-h light/dark cycle to mimic natural diurnal rhythms. The rats were randomly allocated into three distinct groups, with an equal distribution of three rats per group. MONO, DIAM, and MAGN were administered orally at a dose of 20 mg/kg. The amount administered was calculated as the contents of glycyrrhizinate or magnesium isoglycyrrhizinate. Each compound was dissolved in 0.5% carboxymethylcellulose sodium (CMC-Na) solution and delivered immediately to rats via gastric gavage. Blood samples of 0.2 mL were obtained at various time points post-administration (0.5, 1, 2, 4, 8, 12, 24, and 48 h) and centrifuged at 1500× g for 10 min at 4 °C, allowing for the separation of plasma, which was collected and stored at −20 °C for subsequent analysis.\nFifty microliters (50 μL) of plasma was obtained and spiked with 10 μL of dipyridamole solution as an internal standard. Subsequently, 100 μL of acetonitrile was added to precipitate the proteins, followed by vortex mixing. The mixture was centrifuged at 6000× g for 10 min at 4 °C. The resulting precipitate was discarded, and the supernatant was evaporated to dryness under a nitrogen stream at 60 °C. The residual precipitate was redissolved in 200 μL of mobile phase, vortexed for 5 min, and sonicated for 30 s. Following this, the solution was centrifuged again at 6000× g for 10 min at 4 °C. Then, 10 μL of the supernatant was injected and the chromatogram was recorded for analysis.\nHPLC was employed using the Agilent 1200 series system (Agilent Technologies, Wilmington, DE, USA) with Agilent Chemstation LC B.04.03 Software. The separation was on a Venusil MP C18(2) chromatographic column (150 × 4.6 mm, 5 μm, Agela Technologies, Tianjin, China) based on the United States Pharmacopeia with adjustments performed. Isocratic elution with a mixture of 40 volumes of acetonitrile and 60 volumes of water (containing 0.5% acetic acid) was used. The flow rate and temperature were 1.0 mL/min and 40 °C, respectively. A volume of 10 μL of the sample was injected under 254 nm for analyses and with three repetitions for each test (n = 3). All the pharmacokinetic data were calculated by Drug and Statistics (DAS) 2.0 software (Mathematical Pharmacology Professional Committee of China, Shanghai, China) and presented as mean ± SD. The main parameters such as the area under the curve (AUC), the maximum plasma concentration (Cmax), the time to Cmax (Tmax), and elimination half-life (t1/2) were tabulated.",
  "note": "Read-outs that look alike come from different tables or passages of the source.",
  "data": [
    {"smiles": "CC1(C)[C@@H](O[C@H]2O[C@H](C(=O)O)[C@@H](O)[C@H](O)[C@H]2O[C@@H]2O[C@H](C(=O)O)[C@@H](O)[C@H](O)[C@H]2O)CC[C@]2(C)[C@H]3C(=O)C=C4[C@@H]5C[C@@](C)(C(=O)O)CC[C@]5(C)CC[C@@]4(C)[C@]3(C)CC[C@@H]12", "note": "[DIAM, diammonium glycyrrhizinate]", "values": [
      {"measurement": "AUC(0-t)", "setting": "oral 20 mg/kg, n = 3", "result": "358.04 ± 56.36", "unit": "µg·h/mL"},
      {"measurement": "Cmax", "setting": "oral 20 mg/kg, n = 3", "result": "18860 ± 2030", "unit": "ng/mL"},
      {"measurement": "Tmax", "setting": "oral 20 mg/kg, n = 3", "result": "6 ± 0", "unit": "h"},
      {"measurement": "t1/2", "setting": "oral 20 mg/kg, n = 3", "result": "11.57 ± 1.29", "unit": "h"}
    ]},
    {"smiles": "CC1(C)[C@@H](O[C@H]2O[C@H](C(=O)O)[C@@H](O)[C@H](O)[C@H]2O[C@@H]2O[C@H](C(=O)O)[C@@H](O)[C@H](O)[C@H]2O)CC[C@]2(C)[C@H]3C(=O)C=C4[C@H]5C[C@@](C)(C(=O)O)CC[C@]5(C)CC[C@@]4(C)[C@]3(C)CC[C@@H]12", "note": "[MAGN, magnesium isoglycyrrhizinate]", "values": [
      {"measurement": "half-life", "setting": "male, Sprague Dawley, po, 20 mg/kg, n = 3", "result": "23.7 ± 2.44", "unit": "h"},
      {"measurement": "AUC(0-t)", "setting": "male, Sprague Dawley, po, 20 mg/kg, n = 3, read-out: AUC0-t", "result": "552 ± 120", "unit": "µg·h/mL"},
      {"measurement": "Cmax", "setting": "male, Sprague Dawley, po, 20 mg/kg, n = 3, read-out: Cmax", "result": "23200 ± 4180", "unit": "ng/mL"},
      {"measurement": "Tmax", "setting": "male, Sprague Dawley, po, 20 mg/kg, n = 3, read-out: Tmax", "result": 9.66, "unit": "h"},
      {"measurement": "Tmax", "setting": "oral 20 mg/kg, n = 3", "result": "9.33 ± 2.31", "unit": "h"}
    ]}
  ]
}
